Results as given in patent US8653071B2, “α4β2 neuronal nicotinic acetylcholine receptor ligands” (Suven Life Sciences Limited, priority 2009, dated 2014).

Columns and labels:
Male Wister rats [1] = assay: Acute food intake study (animal model of hyperphagia); format: in vivo, rat; conditions: oral
Method: The appetite suppressing properties of compounds of this invention were studied using an animal model of hyperphagia.
Male Wister rats (200-210 grams) obtained from Raj Biotech, India were used as experimental animals. The experiment consisted of 6 days. The rats were adapted to the 18 hour fasting and 6 hour feeding pattern. The animals were housed in a group of three in the cages provided with the fasting grills and were fasted for 18 hours. After 18 hour fasting the rats were separated and placed individually in a cage. Weighed amount of feed was provided to rats for 6 hour and the feed intake at 1, 2, 4 and 6 hours was recorded. Again the rats were regrouped and fasted for 18 hour. The above procedure was followed for 5 days. The average cumulative food intake by the rats on the last 3 days was calculated. Animals were randomised on the basis of their last three days food intake.
One group of 8 rats received vehicle (2 mL/Kg) orally and another set of animals received compound of the formula (I) orally. Then the rats were given access to food and the food intake at 1, 2, 4 and 6 hours was recorded. The food intake by the rats treated with test compound was compared with the vehicle treated group by using students‘t’ test.

Male Wister rats [2] = assay: Reversal of formalin induced nociception; format: in vivo; conditions: p.o.; rat
Method: Reversal of Formalin Induced Nociception
The anti-nociceptive properties of compounds of this invention were evaluated using a model of pain: the Formalin Induced Nociception model. Male Wister rats (230-280 grams) obtained from N. I. N. (National Institute of Nutrition, Hyderabad, India) was used as experimental animals.
Rats were habituated for 20 minutes in the arena before the experiment was started. Duration of licks, bites and flinches were noted from 0-10 minutes and 20-35 minutes after administration of formalin, subplantar into the right hind paw at concentrations of 5% v/v. 50 μL of water for injection was injected into the right hind paw of the rats of the sham group. Compounds of this invention were administered orally prior to formalin administration.

`CNCC1CC2CC2N1c1cccnc1.Cl` (stereo not drawn) [Example 4, N-[2-(Pyridin-3-yl)-2-azabicyclo[3.1.0]hex-3-ylmethyl]methylamine hydrochloride] was tested, and the Inference (Male Wister rats [1]) was “Active”, the “% Suppression of food intake compared to vehicle, 1 Hour” value (Male Wister rats [1]; 1 Hour, 18 hour fasted rats) was 38.45% and the “% Suppression of food intake compared to vehicle, 2 Hour” value (Male Wister rats [1]; 2 Hour, 18 hour fasted rats) was 30.23%. The “% Suppression of food intake compared to vehicle, 4 Hour” value (Male Wister rats [1]; 4 Hour, 18 hour fasted rats) was 25.60%, the “% Suppression of food intake compared to vehicle, 6 Hour” value (Male Wister rats [1]; 6 Hour, 18 hour fasted rats) was 18.63% and the “Dose (reversal of formalin induced nociception)” value (Male Wister rats [2]) was “≦10 mg/kg, p.o”.
